Converted amounts (≈) assume the structure as drawn.
test: in vitro; details: human, Picorana CC50

Row | Compound | CC50
1 | Cc1cc2c(cc1C)C1(O)C(=O)c3ccccc3C1(O)N2 (stereo not drawn) [Example 106, 4b,9b-Dihydroxy-7,8-dimethyl-4b,5-dihydroindeno[1,2-b]indol-10(9bH)-one] | 3.53 µg/mL (≈ 12.5 µM)
2 | CC(=O)OC12C(=O)c3ccccc3C1(OC(C)=O)N(C(C)=O)c1cc(C)c(C)cc12 (stereo not drawn) [Example 107, 5-Acetyl-7,8-dimethyl-10-oxo-4b,5,9b,10-tetrahydroindeno[1,2-b]indole-4b,9b-diyl diacetate] | > 50 µg/mL
3 | CC(=O)N1c2ccccc2C2(N)C(=O)c3ccccc3C12O (stereo not drawn) [Example 108, 5-Acetyl-9b-amino-4b-hydroxy-5,9b-dihydro-4bH-indeno[1,2-b]indol-10-one] | 1.81 µg/mL (≈ 6.15 µM)
4 | CC(=O)Nc1ccc([N+](=O)[O-])c2c1C(=O)C1(N)c3ccc(C(C)C)cc3OC21O (stereo not drawn) [Example 109, N-(9b-Amino-4b-hydroxy-7-isopropyl-4-nitro-10-oxo-9b,10-dihydro-4bH-5-oxa-indeno[2,1-a]inden-1-yl)-acetamide] | > 50 µg/mL
5 | CC(=O)Nc1ccc([N+](=O)[O-])c2c1C(=O)C1(NC(C)=O)c3ccc(C(C)C)cc3OC21OC(C)=O (stereo not drawn) [Example 110, Acetic acid 1,9b-bis-acetylamino-7-isopropyl-4-nitro-10-oxo-9b,10-dihydro-5-oxa-indeno[2,1-a]inden-4b-yl ester] | 14.4 µg/mL (≈ 29.9 µM)
6 | COC(=O)OC12Oc3cc(C(C)C)ccc3C1(NC(C)=O)C(=O)c1ccccc12 (stereo not drawn) [Example 111, 9b-Acetamido-7-isopropyl-10-oxo-9b,10-dihydro-4bH-indeno[1,2-b]benzofuran-4b-yl methyl carbonate] | 43.6 µg/mL (≈ 110 µM)
7 | CCCCC(=O)OC12Oc3cc(C(C)C)ccc3C1(NC(C)=O)C(=O)c1ccccc12 (stereo not drawn) [Example 112, 9b-Acetamido-7-isopropyl-10-oxo-9b,10-dihydro-4bH-indeno[1,2-b]benzofuran-4b-yl pentanoate] | 42 µg/mL (≈ 99.6 µM)
8 | CCOC(=O)OC12Oc3cc(C(C)C)ccc3C1(NC(C)=O)C(=O)c1ccccc12 (stereo not drawn) [Example 116, 9b-Acetamido-7-isopropyl-10-oxo-9b,10-dihydro-4bH-benzo[d]indeno[1,2-b]furan-4b-yl ethyl carbonate] | 41.7 µg/mL (≈ 102 µM)
9 | CC(=O)NC12C(=O)c3ccccc3C1(OC(=O)C(C)(C)C)Oc1cc(C(C)C)ccc12 (stereo not drawn) [Example 117, 9b-Acetamido-7-isopropyl-10-oxo-9b,10-dihydro-4bH-benzo[d]indeno[1,2-b]furan-4b-yl pivalate] | > 50 µg/mL
10 | CNC(=O)OC12Oc3cc(C(C)C)ccc3C1(NC(C)=O)C(=O)c1ccccc12 (stereo not drawn) [Example 118, 9b-Acetamido-7-isopropyl-10-oxo-9b,10-dihydro-4bH-benzo[d]indeno[1,2-b]furan-4b-yl methylcarbamate] | > 50 µg/mL
11 | CC(=O)NC12Oc3cc(C(C)C)ccc3C1(NC(C)=O)C(=O)c1ccccc12 (stereo not drawn) [Example 119] | 38.2 µg/mL (≈ 101 µM)
12 | CC(C)c1ccc2c(c1)OC1(OCc3ccccc3)c3ccccc3C(=O)C21O (stereo not drawn) [Example 120, 4b-(Benzyloxy)-9b-hydroxy-7-isopropyl-4bH-indeno[1,2-b]benzofuran-10(9bH)-one] | 8.16 µg/mL (≈ 21.1 µM)
13 | CC(=O)NC12C(=O)c3ccccc3C1(OC(=O)Oc1ccccc1)Oc1cc(C(C)C)ccc12 (stereo not drawn) [Example 121, Carbonic acid 9b-acetylamino-7-isopropyl-10-oxo-9b,10-dihydro-5-oxa-indeno[2,1-a]inden-4b-yl ester phenyl ester] | > 50 µg/mL
14 | CC(C)c1ccc2c(c1)OC1(OC(=S)Nc3ccccc3)c3ccccc3C(=O)C21N=[N+]=[N-] (stereo not drawn) [Example 122, Phenyl-thiocarbamic acid O-(9b-azido-7-isopropyl-10-oxo-9b,10-dihydro-5-oxa-indeno[2,1-a]inden-4b-yl) ester] | 12 µg/mL (≈ 26.2 µM)
15 | CCC(=O)NC12Oc3cc(C(C)C)ccc3C1(NC(=O)CC)C(=O)c1ccccc12 (stereo not drawn) [Example 124] | > 50 µg/mL
16 | CC(C)C(=O)NC12Oc3cc(C(C)C)ccc3C1(NC(=O)C(C)C)C(=O)c1ccccc12 (stereo not drawn) [Example 125] | 45.5 µg/mL (≈ 105 µM)
17 | CC(C)c1ccc2c(c1)OC1(O)c3cccnc3C(=O)C21O (stereo not drawn) [Example 126, 4b,9b-Dihydroxy-7-isopropyl-4bH-benzofuro[2′,3′:3,4]cyclopenta[1,2-b]pyridin-10(9bH)-one] | 47.1 µg/mL (≈ 158 µM)
18 | CC(=O)OC12Oc3cc(C(C)C)ccc3C1(OC(C)=O)C(O)c1ccccc12 (stereo not drawn) [Example 127, 10-Hydroxy-7-isopropyl-9b,10-dihydro-4bH-indeno[1,2-b]benzofurane-4b,9b-diyl diacetate] | 37.6 µg/mL
19 | CO/N=C1/c2ccccc2C2(NOC)Oc3cc(C(C)C)ccc3C12O (stereo not drawn) [Example 128, 9b-Hydroxy-7-isopropyl-4b-(methoxyamino)-4bH-indeno[1,2-b]benzofuran-10(9bH)-one O-methyl oxime] | 37.3 µg/mL (≈ 105 µM)
20 | C=C1c2ccccc2C2(OC)Oc3cc(C(C)C)ccc3C12O (stereo not drawn) [Example 129, 7-Isopropyl-4b-methoxy-10-methylene-9b,10-dihydro-4bH-indeno[1,2-b]benzofuran-9b-ol] | 6.79 µg/mL (≈ 22 µM)
21 | CO/N=C1/c2ccccc2C2(OC)Oc3cc(C(C)C)ccc3C12O (stereo not drawn) [Example 130, 9b-Hydroxy-7-isopropyl-4b-methoxy-4bH-indeno[1,2-b]benzofuran-10(9bH)-one O-methyl oxime] | > 50 µg/mL
22 | CC(C)c1ccc2c(c1)OC1(O)c3cccc(NCc4ccccc4)c3C(=O)C21O (stereo not drawn) [Example 132, 1-(Benzylamino)-4b,9b-dihydroxy-7-isopropyl-4bH-indeno[1,2-b]benzofuran-10(9bH)-one] | 0.72 µg/mL (≈ 1.79 µM)
23 | CCNc1cccc2c1C(=O)C1(O)c3ccc(C(C)C)cc3OC21O (stereo not drawn) [Example 133, 1-(Ethylamino)-4b,9b-dihydroxy-7-isopropyl-4bH-indeno[1,2-b]benzofuran-10(9bH)-one] | 1.58 µg/mL (≈ 4.66 µM)
24 | CC(C)c1ccc2c(c1)OC1(C)c3ccccc3C(=O)C21O (stereo not drawn) [Example 134, 9b-Hydroxy-7-isopropyl-4b-methyl-4bH-indeno[1,2-b]benzofuran-10(9bH)-one] | 6.69 µg/mL (≈ 22.7 µM)
25 | CC(C)c1ccc2c(c1)OC1(O)c3ccccc3C(C)C21O (stereo not drawn) [Example 136, 7-Isopropyl-10-methyl-9b,10-dihydro-4bH-indeno[1,2-b]benzofuran-4b,9b-diol] | 7.8 µg/mL (≈ 26.3 µM)
26 | CC(=O)NC12C(=O)c3c(Br)cccc3C1(O)Oc1cc(C(C)C)ccc12 (stereo not drawn) [Example 137, N-(1-Bromo-4b-hydroxy-7-isopropyl-10-oxo-9b,10-dihydro-4bH-indeno[1,2-b]benzofuran-9b-yl)acetamide] | 40 µg/mL (≈ 96 µM)
27 | COc1cc2c(cc1OC)C1(O)C(=O)c3ccccc3C1(O)N2C(=O)C(C)C (stereo not drawn) [Example 138, 4b,9b-Dihydroxy-5-isobutyryl-7,8-dimethoxy-5,9b-dihydro-4bH-indeno[1,2-b]indol-10-one] | 38.8 µg/mL (≈ 101 µM)
28 | CC(C)c1ccc2c(c1)OC1(O)c3ccc(N4CCCCC4)cc3C(=O)C21O (stereo not drawn) [Example 139, 4b,9b-Dihydroxy-7-isopropyl-2-piperidinyl-4bH-benzo[d]indeno[1,2-b]furan-10(9bH)-one] | 0.45 µg/mL (≈ 1.19 µM)
29 | CC(C)c1ccc2c(c1)OC1(O)c3ccc(N4CCOCC4)cc3C(=O)C21O (stereo not drawn) [Example 140, 4b,9b-Dihydroxy-7-isopropyl-2-morpholinyl-4bH-benzo[d]indeno[1,2-b]furan-10(9bH)-one] | 2.08 µg/mL (≈ 5.45 µM)
30 | CC(C)c1ccc2c(c1)OC1(O)c3cccc(N4CCCCC4)c3C(=O)C21O (stereo not drawn) [Example 141, 4b,9b-Dihydroxy-7-isopropyl-1-piperidinyl-4bH-benzo[d]indeno-[1,2-b]furan-10(9bH)-one] | 3.47 µg/mL (≈ 9.14 µM)

Source: patent US9890133B2 (priority 2011, dated 2018)
